Where a chain is given by its changes, count along the chain named. Names may count otherwise.
B1: KOD Y7A: modified DNA polymerase derived from Thermococcus kodakaraensis KOD1 with Y7A (protein, listed as Thermococcus kodakaraensis)
chain: MILDTDAITEDGKPVIRIFKKENGEFKIEYDRTFEPYFYALLKDDSAIEEVKKITAERHGTVVTVKRVEKVQKKFLGRPVEVWKLYFTHPQDVPAIRDKIREHPAVIDIYEYDIPFAKRYLIDKGLVPMEGDEELKMLAFDIETLYHEGEEFAEGPILMISYADEEGARVITWKNVDLPYVDVVSTEREMIKRFLRVVKEKDPDVLITYNGDNFDFAYLKKRCEKLGINFALGRDGSEPKIQRMGDRFAVEVKGRIHFDLYPVIRRTINLPTYTLEAVYEAVFGQPKEKVYAEEITTAWETGENLERVARYSMEDAKVTYELGKEFLPMEAQLSRLIGQSLWDVSRSSTGNLVEWFLLRKAYERNELAPNKPDEKELARRRQSYEGGYVKEPERGLWENIVYLDFRSLYPSIIITHNVSPDTLNREGCKEYDVAPQVGHRFCKDFPGFIPSLLGDLLEERQKIKKKMKATIDPIERKLLDYRQRAIKILANSYYGYYGYARARWYCKECAESVTAWGREYITMTIKEIEEKYGFKVIYSDTDGFFATIPGADAETVKKKAMEFLKYINAKLPGALELEYEGFYKRGFFVTKKKYAVIDEEGKITTRGLEIVRRDWSEIAKETQARVLEALLKDGDVEKAVRIVKEVTEKLSKYEVPPEKLVIHEQITRDLKDYKATGPHVAVAKRLAARGVKIRPGTVISYIVLKGSGRIGDRAIPFDEFDPTKHKYDAEYYIENQVLPAVERILRAFGYRKEDLRYQKTRQVGLSAWLKPKGT
B2: KOD V93R: modified KOD DNA polymerase with V93R (protein, listed as Thermococcus kodakaraensis)
chain: B1 chain with A7Y, V93R
B3: KOD P36R: modified KOD DNA polymerase with P36R (protein, listed as Thermococcus kodakaraensis)
chain: B1 chain with A7Y, P36R
B4: KOD P36H: modified KOD DNA polymerase with P36H (protein, listed as Thermococcus kodakaraensis)
chain: B1 chain with A7Y, P36H
B5: KOD V93Q: modified KOD DNA polymerase with V93Q (protein, listed as Thermococcus kodakaraensis)
chain: B1 chain with A7Y, V93Q
B6: KOD V93K: modified KOD DNA polymerase with V93K (protein, listed as Thermococcus kodakaraensis)
chain: B1 chain with A7Y, V93K
B7: KOD P36H/V93K: modified KOD DNA polymerase with P36H and V93K (protein, listed as Thermococcus kodakaraensis)
chain: B1 chain with A7Y, P36H, V93K

Legend:
[1] = tested on: 482 bp of human β-globin; experiment: PCR amplification of 482 bp of human β-globin with dUTP in place of dTTP; type: biochemical; set-up: key to Results of PCR in the presence of dUTP 481 bp: A: Amplified; B: Amplified (faint band); C: Not amplified; details: for Results of PCR in the presence of dUTP 481 bp: dTTP replaced by dUTP, 35 cycles
Summary of the method: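 482 bp human β-globin amplified from 10 ng human genomic DNA with 1 U enzyme premixed with KOD antibody, using 0.2 mM dNTPs with either dTTP or dUTP, 1.5 mM MgSO4, 15 pmol primers. Cycling: 94 °C 2 min, then 35 cycles of 98 °C 10 s, 68 °C 1 min; products analysed by MultiNA DNA-1000 microchip electrophoresis.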

[2] = tested on: 1.3 kbp, 2.8 kbp, and 3.6 kbp of human β-globin; experiment: Amplification of long-chain DNA in PCR using dUTP; type: biochemical; set-up: key to Results of PCR in the presence of dUTP 1.3 kbp / Results of PCR in the presence of dUTP 2.8 kbp / Results of PCR in the presence of dUTP 3.6 kbp: A: Amplified; B: Amplified (faint band); C: Not amplified; details: dTTP replaced by dUTP, 35 cycles
Summary of the method: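 Enzymes (1 U, premixed with KOD antibody) amplified 1.3, 2.8 and 3.6 kbp β-globin from 10 ng human genomic DNA with 2 mM dNTPs having dUTP in place of dTTP, 1.5 mM MgSO4, 35 cycles (98° C. 10 s, 65° C. 30 s, 68° C. ~1 min/kbp). Taq control: 2.5 U, 94° C. denaturation. Yield judged by ethidium-stained agarose gel.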

Row | Molecule | Results of PCR in the presence of dUTP 481 bp [1] | Results of PCR in the presence of dUTP 1.3 kbp [2] | Results of PCR in the presence of dUTP 2.8 kbp [2] | Results of PCR in the presence of dUTP 3.6 kbp [2] | PCR amplification of 482 bp with dUTP ([1]; 100% dUTP instead of dTTP (FIGS. 5 to 8))
1 | KOD H147E/Y7A/P115Δ: KOD H147E (exo(+)) mutant with Y7A and lacking P115 | C | C | C | C | –
2 | KOD I142R/Y7A/V93K: KOD I142R (exo(−)) mutant with Y7A and V93K | A | A | A | A | –
3 | KOD I142R/V93K: KOD I142R (exo(−)) mutant with V93K | A | A | B | B | –
4 | KOD N210D/Y7A/P36R: KOD N210D (exo(−)) mutant with Y7A and P36R | A | A | A | A | –
5 | KOD H147E/V93Q: KOD H147E (exo(+)) mutant with V93Q | A | C | C | C | –
6 | KOD N210D/V93K: KOD N210D (exo(−)) mutant with V93K | A | A | B | B | –
7 | KOD I142R/P36R: KOD I142R (exo(−)) mutant with P36R | A | A | A | A | –
8 | KOD N210D/V93Q: KOD N210D (exo(−)) mutant with V93Q | A | C | C | C | –
9 | KOD H147E/V93K: KOD H147E (exo(+)) mutant with V93K | A | B | B | B | –
10 | KOD I142R/Y7A: KOD I142R (exo(−)) mutant with Y7A | C | C | C | C | –
11 | KOD H147E/Y7A: KOD H147E (exo(+)) mutant with Y7A | C | C | C | C | –
12 | KOD I142R/Y7A/P36R: KOD I142R (exo(−)) mutant with Y7A and P36R | A | A | A | B | –
13 | KOD H147E/V93R: KOD H147E (exo(+)) mutant with V93R | A | B | B | B | –
14 | B1 | C | C | C | C | not PCR-amplified
15 | B2 | A | B | B | B | –
16 | B3 | A | B | B | B | –
17 | B4 | A | B | B | C | –
18 | B5 | A | C | C | C | –
19 | B6 | A | B | B | B | –
20 | B7 | A | A | A | C | –
